The values below come from patent US7557092B2, “Purinergic modulation of smell” (University of Utah Research Foundation, priority 2002, dated 2009).

Values joined by “and” are separate entries in the source; they are usually repeats but may differ in a detail not shown here. Identical values can stand only once.

One experiment deals with cultured mouse ORNs. Briefly: confocal calcium imaging of fluo-4 AM loaded cultured ORNs. The format is cell-based.
The subject of experiment [1] is P2X and P2Y purinergic receptors. The following applies: cited from earlier work.
The test system of experiment [2] is sustentacular cells in mouse olfactory epithelium slices. Briefly: confocal calcium imaging of fluo-4 AM loaded olfactory epithelium slices, sustentacular cells. The format is cell-based. As to conditions: 10 μM agonist superfused onto slice. The text has this:
To study the effects of ATP on odor responses, acutely prepared slices of mouse olfactory epithelium were used. Confocal imaging of fluo-4 AM-loaded olfactory epithelium slices allows simultaneous recording from identified structures within the olfactory epithelium, i.e., both ORNs and sustentacular cells. […] The difference in robustness can be due to poor access to the ATP stimulus: odorant receptors are on the cilia of the ORNs, which extend beyond the outer edge of the olfactory epithelium, whereas purinergic receptors are located deeper within the olfactory epithelium. […] The latency of activation for the ATP-evoked calcium transient was shorter in the ORN (FIG. 3B2, solid up arrowhead) than in sustentacular cells (FIG. 3B3, open down arrowhead). Collectively, this was consistent with ORNs expressing the faster P2X receptors, and the sustentacular cells expressing the slower G-protein coupled P2Y receptors.
To prepare olfactory epithelium slices, neonatal mice (postnatal day 0-6) were quickly decapitated, and the skin and lower jaw were removed. Tissue was mounted in ice cold Ringers onto a vibratome-cutting block and 300 μm slices were made. Primary cultures of mouse ORNs were made using the same protocol and culture conditions as described for rat olfactory receptor neurons (Vargas and Lucero, 1999a). Briefly, tissue was placed in divalent cation-free Ringers containing 10 mg/ml bovine serum albumin, 1 mg/ml deoxyribonuclease II and 44 U/ml dispase, incubated at 37° C. for 45 min. The tissue was washed, triturated, and filtered through a […] mesh and […] cells were plated onto concanavalin A-coated coverslips and allowed to settle for 20 min. An additional 1.5 ml of culture medium was added (DMEM supplemented with […] ascorbic acid, 1X insulin-transferrin-seleniumX (GIBCO BRL), 2 mM glutamine, 100 U/ml penicillin G and […] streptomycin).
[Ca^2+]i was determined using confocal imaging of fluo-4 AM (18 μM; Molecular Probes) loaded cells and slices. Cells or slices were placed in a laminar flow chamber (Warner Instruments) and perfused continuously with Ringers solution at a flow rate of 1.5-2.0 ml/min. Ringers contained (mM): 140 NaCl, 5 KCl, 1 MgCl2, 2 CaCl2, 10 HEPES, 10 glucose, […] and 400 nM tetrodotoxin. Test solutions were applied using bath exchange and a small volume loop injector (200 μl). A Zeiss LSM 510 confocal laser scanning system was used for data collection and analysis. Time series experiments were performed collecting 1400×700 pixel images at 0.2-0.4 Hz. The fluorometric signals obtained are expressed as relative fluorescence change, ΔF/F═(F−F0)/F0, where F0 is the basal fluorescence level. Increases in F greater than 10% above baseline noise were considered responses.

Experiment [3] relates to ORNs in neonatal mouse OE slices. In words: on-cell current-clamp recording of cyclic nucleotide-induced electrical responses. The format is cell-based. As to conditions: 10 μM ATP co-applied with cyclic nucleotide mixture (IBMX, CPT-cAMP, 8-Br-cGMP), n=3 cells. The method, then: Filled triangles correspond to the time of loop injection of the test solutions. […] Various test solutions were superfused onto the slice for 30 seconds, indicated by the shaded region. The cell was allowed to recover for 7 minutes after each test application. Note that the coapplication of ATP (10 μM) and the mixture suppressed the evoked membrane potential changes. […] N=3 from three slices, also indicated in each column.
Electro-olfactogram and on-cell recordings: Slices of P0-P6 mouse OE were prepared as described above and mounted in a perfusion chamber with a bath flow of […]. Test chemicals were introduced using a rotary injection valve (Rheodyne, Cotati, Calif.). The electro-olfactogram (EOG) recording electrode (3 M NaCl in 1% agar; tip diameter, 5-10 um) was positioned along the dorsal portion of the nasal septum. The differential electrode (identical to the recording electrode) was positioned over skull cartilage and an […] ground electrode was connected to the bath solution via a 3 M KCl agar bridge. […]
For the noninvasive on-cell recordings (Chiu et al., 1997), the same electronics were used as described for nystatin-patch experiments. […] The time course of solution delivery was determined by placing an electrode in a slice and switching from Ringer's solution to distilled water. […]

The subject of experiment [4] is odor responses of mouse ORNs in olfactory epithelium slices. Briefly: co-application of odor and purinergic receptor agonist, calcium transients in olfactory epithelium slices. In kind it is cell-based.
The next experiment concerns the target P2Y4 (Homo sapiens, UniProt P51582). As to conditions: cDNA from Human chromosome X; cited from earlier work.

P2Y4, sequence (P51582 whole entry): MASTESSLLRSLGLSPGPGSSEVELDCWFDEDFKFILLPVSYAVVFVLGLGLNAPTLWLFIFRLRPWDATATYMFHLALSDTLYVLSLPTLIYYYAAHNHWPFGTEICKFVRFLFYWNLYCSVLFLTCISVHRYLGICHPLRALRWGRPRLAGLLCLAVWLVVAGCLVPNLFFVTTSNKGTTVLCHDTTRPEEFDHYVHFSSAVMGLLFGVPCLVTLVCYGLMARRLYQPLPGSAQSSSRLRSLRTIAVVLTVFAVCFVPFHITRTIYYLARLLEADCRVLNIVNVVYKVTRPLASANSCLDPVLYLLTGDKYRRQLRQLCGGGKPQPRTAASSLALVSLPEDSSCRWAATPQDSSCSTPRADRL

In general, EC50 refers to the concentration that produces a half-maximal response. For the compound `Nc1ncnc2c1ncn2[C@@H]1O[C@H](COP(=O)(O)OP(=O)(O)OP(=O)(O)O)[C@@H](O)[C@H]1O` [ATP, Adenosine 5′-triphosphate], the “ATP-induced rise in [Ca2+]i in the absence of external Ca2+, larger than in the presence of Ca2+” value with cultured mouse ORNs (10 μM ATP, 0 Ca2+ + EGTA) is recorded as 31±11%. Further, in the experiment on cultured mouse ORNs (10 μM ATP, n=76), the “ΔF/F increase in [Ca2+]i, average” value stood at 151±12% and the “ΔF/F increase in [Ca2+]i, range” value is recorded as 13-398%. For the same compound, the EC50 in the experiment with cultured mouse ORNs (Mus musculus, averaged dose-response, maximum % ΔF/F relative to 10 μM ATP, n=58, read-out: EC50 of ATP-induced [Ca2+]i increases) turned out to be 1600 nM. Also, in the experiment with cultured mouse ORNs (extracellularly applied ATP), the “ORNs with rapid transient increase in [Ca2+]i” value is recorded as 76/84. Besides, the “concentrations that activate P2X and P2Y purinergic receptors” value in experiment [1] was 0.1 to 10 µM. Besides, the “agonist-evoked calcium transients in sustentacular cells” value in experiment [2] is “evoked calcium transients”. Also, the “reduction of the electrical activity of the ORN” value in experiment [3] was 67±2%. In experiment [4] (co-application of 10 μM ATP and odor (10 μM n-amyl acetate+10 μM R-carvone)), the “odor-responsive cells with a significant decrease in the summed [Ca2+]i increase” value was determined as 62%. Also, the “mean suppression of the summed [Ca2+]i increase” value in experiment [4] (co-application of 10 μM ATP and odor, n=26) is 57±5% and 57%±5%. Further, the “mean enhancement of evoked [Ca2+]i increase” value in experiment [4] (co-application of 10 μM ATP and odor, the two ORNs with >20% increase) is given as 157±34%. Further, the Agonist activity result at P2Y4 is “UTP > UDP (ATP inactive)”.
